Data from patent US9249468B2, “Methods and materials related to ovarian cancer” (The Ohio State University, priority 2011, dated 2016).
Values joined by “and” are separate entries in the source; they are usually repeats but may differ in a detail not shown here. Equal values may be shown once. “Also recorded” adds a separate entry of the source.

Tests used:
MDAH-2774 cells [1] = experiment: In vitro sensitivity to CBDCA and Tax of miR-overexpressing cells (MTS assay); format: cell-based; conditions: overexpression of the miR in MDAH-2274 cells; MTS assay 4 days later
Description: (§1) After drugs removal, cells were washed in PBS and incubated in the presence of serum for additionally 4 days. Cells viability was assessed using MTS assay (SIGMA) following manufacturer instructions. The reported IC50 values represent the mean of at least 3 independent experiments. For the evaluation of miR-484 effects on in vitro drug sensitivity parental, scramble and miR-484 expressing cells were plated in 96 wells plates (1000 cells/well) and treated with the indicated doses of CBDCA and TAX. Viability was evaluated after 4 days as described above.

SKOV-3 cells [2] = experiment: as above; format: cell-based; conditions: overexpression of the miR in SK-OV3 cells; MTS assay 4 days later
Description: as §1

HUVEC cells [3] = experiment: Co-culture of HUVEC with miR over-expressing ovarian cancer cells: miR transfer; format: cell-based
Description: (§2) Total RNA was isolated with Trizol (Invitrogen) from cells and with High Pure miRNA Isolation Kit (Roche) in accordance with manufacturer's instructions for liquid samples. Mature miRs were assessed by the single-tube TaqMan MicroRNA Assay. miR expression was normalized in cells to RNU44 and RNU48. All retrotranscriptase (RT) reactions, including no-template controls and RT minus controls, were run in a GeneAmp PCR 9600 Thermocycler (Applied Biosystems).
(§3) Each sample was tested in triplicate unless otherwise specified. MicroRNAs from medium samples were isolated. After DNase treatment (Ambion), RNA concentrations were determined with a NanoDrop (Thermo Scientific). In serum samples were normalized to U6snRNA (Applied Biosystems), as indicated. Since U6 is inconsistent, the expression levels of target miRNAs were directly normalized to total RNA (the inventors tested before the absence of miR-296-5p and miR-484 in not conditioned medium).

[4] = tested on: ovarian cancer derived cell lines; experiment: miR expression in stably transfected ovarian cancer cell lines and their conditioned medium (real time PCR); format: cell-based; conditions: for miR in the CM of stably transfected cells: conditioned medium; for increase of miR expression over controls after stable transfection: miR-EGFP stable transfection in ovarian cancer cells
Description: as §2, §3
Lentiviruses expressing miR-484 were produced in 293FT cell lines (Invitrogen), by calcium phosphate transfection. To this purpose, the System Biosciences (SBI, USA) miR Precursor Constructs were used, containing dual expression of the specific miR and the copGFP fluorescent marker, for simple identification and monitoring of cells positive for transfection and transduction. Conditioned media containing viruses was harvested 72 hours after transfection, and used to transduce epithelial ovarian cancer cell lines (EOC). In particular, SKOV-3 and MDAH-2774 were transduced with viruses expressing either GFP alone (called hereafter empty vector) or GFP and precursor of miR-484, and then monitored for their fluorescence expression.

HGS = experiment: Luciferase miRNA target reporter assay and western blot; format: cell-based, human; conditions: luciferase and western blot analyses
Description: (§4) For overexpression of miR-296 and miR-484, 100 nM of pre-miR-296, pre-miR-484 and pre-negative control-2 (Ambion) was transfected into HEK293 and HUVE cells using Lipofectamine 2000 (Invitrogen). After 24 hr, cells were harvested and lysed in RIPA buffer containing protease inhibitor cocktail (Roche Diagnostic). Protein concentrations of total cell lysates were measured using a Bradford Protein Assay Dye Reagent Concentrate (Bio-Rad), and 35 μg of cell lysates was resolved on SDS-PAGE gels (Bio-Rad) and transferred to nitrocellulose followed by visualization with ECL detection reagents (Denville Scientific). The following primary antibodies were used: mouse monoclonal anti-Hgs (1:1000, Enzo Life Science), rabbit polyclonal anti-VEGF Receptor 2 (1:1000, Cell Signaling Technology), mouse monoclonal anti-VEGF-B (1:200, Santa Cruz Biotechnology), mouse monoclonal anti-a-Tubulin (1:2000, Sigma).
(§5) The 3′ UTR of the human HGS, and VEGFB genes were PCR amplified using the following primers:
(§6) and inserted into pGL3 control vector (Promega) by using Xba1 site immediately downstream from the stop codon of firefly luciferase, giving rise to the p3′UTR-HGS, and p3′UTR-VEGFB plasmids. These constructs were used to generate the p3′-UTRmut-HGS primers: […]

VEGFR2 [5] = experiment: VEGFR2 expression in HUVEC co-cultured with miR over-expressing ovarian cancer cells; format: cell-based; conditions: HUVEC co-cultured 24 hours with miR over-expressing cells vs control
VEGFR2 [6] = experiment: Luciferase and western blot after miR transfection in HUVEC cells; format: cell-based; conditions: luciferase and western blot analyses
Description: as §4

MDAH-2774 cells [7] = experiment: Intratumoral delivery of lentivirus expressing miR-484 with CBDCA+Tax treatment; format: in vivo, nude mice; conditions: CBDCA+Tax biweekly for 3 weeks, tumor growth after 21 days
Description: (§7) Two approaches were used to evaluate the effects of miR-484 expression on in vivo chemosensitivity: 1) MDAH-2774 cells scrambled-miR (right flank) or miR-484 (left flank) and SKOV-3 scrambled-miR (right flank) or miR-484 (left flank) were injected and treated with intraperitoneal administration of Carboplatin (15 mg/kg) plus Taxol (5 mg/kg) twice a week, for 3 weeks. Tumor growth was follow by caliper measurement and/or by GFP visualization using the Ivis Lumina, Caliper Lifesciences. 2) Direct intratumoral delivery of lentiviruses expressing scrambled-miR (right flank) or miR484 (left flank) associated with carboplatin (15 mg/kg) plus taxol (5 mg/kg) intraperitoneal treatment.

[8] = tested on: MDAH-2774 xenograft tumors; experiment: Vascular density (CD34, Chalkley eyepiece method) in xenograft tumors; format: in vivo, mice; conditions: MDAH-2774 xenografts transduced with miR-484; 7 tumors
Description: (§8) Tumor sections (2 μm thick) were cut and for formalin fixed paraffin embedded sample deparaffinization was achieved trough graded alcohols. Primary antibody against CD34 was applied following manufacturer's instruction. Vascular density (CD34+) was assessed using the Chalkley eyepiece method. Whole tumor sections were scanned at low magnification under a conference microscope by two observers. Three areas with the highest vascular density (vascular hot-spots) were identified. At high magnification (×400) a 25-point Chalkley-Eyepiece graticule was applied to each hot-spot and oriented to permit the maximum number of points to hit on or within blood vessels. The mean value of the three counts represents the vascular density of the tumor.

SK-OV3 xenograft tumors = experiment: as above; format: in vivo, mice; conditions: SK-OV3 xenografts transduced with miR-484; 7 tumors
Description: as §8

MDAH-2774 cells [9] = experiment: In vivo growth and susceptibility to Carboplatin+Taxol of xenografts expressing miR-484 (caliper); set-up: species or system nude mice
Description: as §7
Athymic female nude mice (8/group) were subcutaneously injected on both dorsal flanks with 100 ul of PBS containing 1.5×10^6 MDAH-2774 cells scrambled-miR (right flank) or miR-484 (left flank).
(§9) Same was carried out with SKOV-3, except that 2.2×10^6 cells have been injected. When tumor masses became visible treatment with CBDCA (15 mg/kg) and Tax (5 mg/kg) was started. Drugs were delivered diluted in 200 ul of PBS and intraperitoneally injected twice a week, for 4 weeks. Tumor masses were measured with a caliper twice a week, for 4 weeks. Moreover, exploiting the expression of GFP fluorescent marker by the ovarian cancer cells utilized, mice have been anesthetized and tumor masses imaged by the Ivis Lumina, Caliper Lifesciences, once a week, for 4 weeks. Mice were then sacrificed and tumor masses excised and included in OCT for further analyses.

HUVEC cells [10] = experiment: Tube formation assay on HUVEC cells with conditioned media from miR-484 expressing ovarian carcinoma cells; format: cell-based; conditions: CM from MDAH-2774 or SK-OV3 overexpressing miR-484
Description: Wells from a 48-well plate were filled with […] of matrigel (BD, non growth factor reduced 8-10 ug/ul) and let solidify at 37° C. for 1 hour. HUVEC cells (ATCC, 1×10^5) resuspended in […] of medium were then layered onto the matrigel layer and monitored over the time for the formation of tube-like structures. Time-lapse video microscopy (Leica) was used to create a movie of this process, collecting images every 5 minutes for up to 20 hours. Media used to resuspend endothelial cells were 1—complete medium for endothelial cells, used as positive control, 2—Serum reduced medium (2%), used as negative control, 3—conditioned medium (plus 2% serum) from […] or MDAH-2774 transduced with scrambled-miR or miR-484.

VEGFB [11] = experiment: Western blot for VEGFB in cell lines stably transduced with miR-484; format: cell-based; conditions: MDAH-2774 or SKOV-3 stably transduced with miR-484 vs scr-vector; western blot (data not shown)
VEGFB [12] = experiment: Luciferase miRNA target reporter assay and western blot; format: cell-based, human; conditions: luciferase and western blot analyses
Description: as §4, §5, §6

SKOV-3 cells [13] = experiment: In vivo growth and susceptibility to Carboplatin+Taxol of xenografts expressing miR-484 (EGFP imaging); set-up: species or system nude mice; conditions: SK-OV3 cells expressing miR-484, EGFP fluorescence imaging
Description: as §7, §9

[14] = CBDCA and Tax treatment, 7 mice, miR-484 expressing tumors

Substance: miR-296: microRNA miR-296 (SEQ ID NO: 9), over-expressed via pre-miR-296 transfection or stable miR-296-EGFP transfection (AGGGCCCCCCCUCAAUCCUGU; listed as RNA, chemistry not given here; listed as Homo sapiens)
- in vitro sensitivity to CBDCA and Tax (MDAH-2774 cells [1]): did not significantly affect
- in vitro sensitivity to CBDCA and Tax (SKOV-3 cells [2]): did not significantly affect
- time within which secreted miR enters HUVEC cells (HUVEC cells [3]): ≤ 24 h
- miR in the CM of stably transfected cells [4]: found
- increase of miR expression over controls after stable transfection [4]: ≥ 2 fold
- endogenous levels of HGS (HGS): modulated
- expression of VEGFR2 on endothelial cells (VEGFR2 [5]): significantly increase

Substance: miR-484: microRNA hsa-miR-484 (SEQ ID NO: 11), over-expressed via lentiviral miR precursor construct or pre-miR-484 transfection (UCAGGCUCAGUCCCCUCCCGAU; listed as RNA, chemistry not fully specified; listed as Homo sapiens)
- in vitro sensitivity to CBDCA and Tax (MDAH-2774 cells [1]): did not significantly affect
- in vitro sensitivity to CBDCA and Tax (SKOV-3 cells [2]): did not significantly affect
- endogenous levels of VEGFR2 (VEGFR2 [6]): modulated
- cases in which drug sensitivity increased (MDAH-2774 cells [7]): 6/6
- mean microvessel density [8]: 10±6.2 and 10
- range of microvessel density [8]: 4-22
- mean microvessel density (SK-OV3 xenograft tumors): 9±5.5 and 9
- range of microvessel density (SK-OV3 xenograft tumors): 1-18
- time within which secreted miR enters HUVEC cells (HUVEC cells [3]): ≤ 24 h
- miR in the CM of stably transfected cells [4]: increased
- increase of miR expression over controls after stable transfection [4]: ≥ 2 fold
- mice in which tumor volume formed by miR-expressing cells was larger than control EGFP-expressing cells (MDAH-2774 cells [9]; 15 days after subcutaneous inoculation, before treatment): 6/8
- increase of tumor size with respect to day 0 at the end of the treatment (MDAH-2774 cells [9]; [14]): 1.3 fold
- range of tumor size increase with respect to day 0 (MDAH-2774 cells [9]; [14]): 0.8-1.8 fold
- formation of tube like structures by HUVEC (HUVEC cells [10]; 6 hours on 3D matrigel): impaired
- formation of tube like structures by HUVEC (HUVEC cells [10]; 20 hrs): abolished; also recorded: reduces the ability of HUVEC to properly form and maintain tube-like structures
- VEGFB expression (VEGFB [11]): down-regulated
- endogenous levels of VEGFB (VEGFB [12]): modulated
- sensitivity to treatment (SKOV-3 cells [13]; CBDCA+Tax): significantly increased
- growth of the primary tumor (SKOV-3 cells [13]): did not affect
- expression of VEGFR2 on endothelial cells (VEGFR2 [5]): significantly decrease
